Experiments:
Type in all cases: cell-based
A172 glioblastoma cells = test: A172 cell viability / proliferation (CellTiter-Glo); details: Homo sapiens, A 172, 48-72 hours treatment, read-out: IC50 for A172 cell growth
Protocol: (§1) A172 glioblastoma cells were cultured in Dulbecco's modified Eagle's medium (DMEM) supplemented with 10% fetal bovine serum and 1% Penicillin-streptomycin. Incubation was performed at 37° C. and 5% CO2.
A172 cells were seeded at 3000-3500 cells/90 μL growth medium per well on 96-well tissue culture plates. Cells were incubated overnight to allow them to recover and reattach. Next day cells were treated with tested compounds and incubated for 48-72 hours.
Cell Proliferation assays in triplicate were performed at each concentration. Compounds test range was 1-30 µM (0, 5, 10, 15, 20, 25, and 30). The compounds were dissolved in DMSO. […]
After treatment, cells were allowed to equilibrate at room temperature for 1/2 to one hour. Cell proliferation was measured by Luminescence quantification using Promega CellTiter-Glo Luminescent Cell Viability Assay. […] Luminescence intensity was measured using the Spectramax i3× plate reader.
The Luminescence intensity data were analyzed using the computer software Graphpad Prism. In the absence of the compound, the luminescence intensity (Lt) in each data set was defined as 100% cell viability. The percent cell in the presence of each compound was calculated according to the following equation: % Cell=L/Lt, were L=the luminescence intensity in the presence of the compound. […]

[1] = tested on: D425 medulloblastoma cells; test: D425 cell viability / proliferation (CellTiter-Glo); details: for IC50: Medulloblastoma cell, 48 hours treatment, CellTiter-Glo, read-out: IC50 for D425 cell growth
Protocol: D425 medulloblastoma cells were purchased from SigmaAldrich. D425 meduloblastoma cells were cultured in improved Dulbecco's modified Eagle's medium (DMEM) Richter's modification supplemented with 20% fetal bovine serum and 1% Penicillin-streptomycin. Incubation was performed at 37° C. and 5% CO2.
D425 cells were seeded at 3000-3500 cells/90 ul growth medium per well on 96-well tissue culture plates. Cells were incubated overnight to allow them to recover. Next day cells were treated with tested compounds and incubated for 48 hours.
Cell Proliferation assays in triplicate were performed at each concentration. Compounds test range was 1-30 μM (0, 5, 10, 15, 20, 25, and 30). The compounds were dissolved in DMSO. A series of dilutions were made in 1% DMSO in growth medium so that the final concentration of DMSO is 0.1% in all of treatments.
After treatment, cells were allowed to equilibrate at room temperature for one hour. Cell proliferation was measured by Luminescence quantification using Promega CellTiter-Glo Luminescent Cell Viability Assay. To perform the assay, 90 ul of Celltiter-Glo substrate was added to each well, plates were shake for 2 minutes and allowed to equilibrate for 10 minutes at room temperature. Luminescence intensity was measured using the Spectramax i3x plate reader.
The Luminescence intensity data were analyzed using the computer software Graphpad Prism. In the absence of the compound, the luminescence intensity (Lt) in each data set was defined as 100% cell viability. The percent cell in the presence of each compound was calculated according to the following equation: % Cell=L/Lt, were L=the luminescence intensity in the presence of the compound.
The values of % cell versus a series of compound concentrations (0, 5, 10, 15, 20, 25, and 30 μM) were then plotted using Nonlinear regression analysis of Sigmoidal dose-response curve. IC50 value was determined by the concentration causing a half-maximal percent activity.

[2] = tested on: phosphatase activity in ApoE transfected A172 glioblastoma cells; test: Cellular in vitro phosphatase activation assay (Malachite Green) in ApoE transfected A172 cells; details: 24 hours
Protocol: Cellular in vitro phosphatase activation assay was performed using the method of Theendakara et al, Molecular and Cellular Neuroscience, 83 (2017), pages 83-91 which is described below:
as §1
A172 cells were seeded at 5×10^5 cells/2.5 ml growth medium (without antibiotics) per well on 6-well tissue culture plates. Cells were incubated overnight to allow them to recover and reattach. […]
After 24 hrs, cells were washed twice with imidazole buffer and lysed using NP-40 Lysis buffer. […] The amount of phosphate release in the assay was determined by measuring absorbance at 620 nm using the Spectramax i3x plate reader.
The absorbance intensity data were analyzed using the computer software Graphpad Prism. The phosphate concentration for each sample was determined from the standard curve using phosphate standard concentrations. In order to compare samples, the first set (column A) were there was no transfection performed and no compound added, was designated a baseline; the absorbance measurement in this column was set as 100% phosphatase activity.

| Compound | IC50 [1] [µM] | other results |
| --- | --- | --- |
| O=S(=O)(NC1CCOC(C2c3ccccc3CCc3ccccc32)C1)c1ccc(OC(F)(F)F)cc1 (racemic) [Example 2, N-(2-(10,11-dihydro-5H-dibenzo[a,d][7]annulen-5-yl)tetrahydro-2H-pyran-4-yl)-4-(trifluoromethoxy)benzenesulfonamide] | 10.3 | IC50 (A172 glioblastoma cells): 14.7 µM; % increase from ApoE transfected cell at 5 μM test compound concentration [2]: 7.2% |
| O=S(=O)(N[C@H]1CCO[C@@H](C2c3ccccc3CCc3ccccc32)C1)c1ccc(OC(F)(F)F)cc1 (single isomer, unassigned) [Example 7] | 5.3 |  |
| O=S(=O)(NC1CCOC(C2c3ccccc3CCc3ccccc32)C1)c1ccc(Cl)cc1 (stereo not drawn) [Example 9, 4-chloro-N-(2-(10,11-dihydro-5H-dibenzo[a,d][7]annulen-5-yl)tetrahydro-2H-pyran-4-yl)benzenesulfonamide] | 6.6 |  |
| O=S(=O)(NC1CCOC(C2c3ccccc3CCc3ccccc32)C1)c1ccc(C(F)(F)F)cc1 (stereo not drawn) [Example 10, N-(2-(10,11-dihydro-5H-dibenzo[a,d][7]annulen-5-yl)tetrahydro-2H-pyran-4-yl)-4-(trifluoromethyl)benzenesulfonamide] | 6 |  |
| Cc1ccc(S(=O)(=O)NC2CCOC(C3c4ccccc4CCc4ccccc43)C2)cc1 (stereo not drawn) [Example 11, N-(2-(10,11-dihydro-5H-dibenzo[a,d][7]annulen-5-yl)tetrahydro-2H-pyran-4-yl)-4-meth ylbenzenesulfonamide] | 9.5 |  |
| O=S(=O)(NC1CCOC(C2c3ccccc3CCc3ccccc32)C1)c1ccc(Br)cc1 (stereo not drawn) [Example 12, 4-bromo-N-(2-(10,11-dihydro-5H-dibenzo[a,d][7]annulen-5-yl)tetrahydro-2H-pyran-4-yl)benzenesulfonamide] | 6.2 |  |
| O=S(=O)(NC1CCOC(C2c3ccccc3CCc3ccccc32)C1)c1cccc(C(F)(F)F)c1 (stereo not drawn) [Example 13, N-(2-(10,11-dihydro-5H-dibenzo[a,d][7]annulen-5-yl)tetrahydro-2H-pyran-4-yl)-3-(trifluoromethyl)benzenesulfonamide] | 5.1 |  |
| O=C(NC1CCOC(C2c3ccccc3CCc3ccccc32)C1)c1ccc(OC(F)(F)F)cc1 (stereo not drawn) [Example 14, N-(2-(10,11-dihydro-5H-dibenzo[a,d][7]annulen-5-yl)tetrahydro-2H-pyran-4-yl)-4-(trifluoromethoxy)benzamide] |  | D425 cell growth, effect at single concentration ([1]; @ 30 μM, 48 hours): ~50% @ 30 μM |
| O=S(=O)(NC1CCOC(C(c2ccccc2)c2ccccc2)C1)c1ccc(OC(F)(F)F)cc1 (stereo not drawn) [Example 15, N-(2-benzhydryltetrahydro-2H-pyran-4-yl)-4-(trifluoromethoxy)benzenesulfonamide] | 11.2 |  |
| O=S(=O)(NC1CCOC(C(c2ccc(F)cc2)c2ccc(F)cc2)C1)c1ccc(OC(F)(F)F)cc1 (stereo not drawn) [Example 16, N-(2-(bis(4-fluorophenyl)methyl)tetrahydro-2H-pyran-4-yl)-4-(trifluoromethoxy)benzenesulfonamide] | 7.3 |  |

Source: patent publication US12522575B2, “2-diarylmethyl-4-aminotetrahydropyran derivatives and related compounds as anticancer, antiinflammatory, antifibrotic and neuroprotective agents” (Atux Iskay LLC, priority 2021, dated 2026)
